Results from patent US20240050428A1 (Cullgen (Shanghai), Inc., priority 2020, published 2024).
pIC50: −log10 of the molar value. Read-outs that look alike come from different tables or passages of the source.

Key:
MV4;11 cells = test: Cell viability assay (CellTiter-Glo) in MV4;11 cells, alone or with gilteritinib; type: cell-based; settings: Homo sapiens, MV4;11 cells, three days, CellTiter-Glo, read-out: MV4
MOLM-13 cells = test: Cell viability assay (CellTiter-Glo) in MOLM-13 cells, alone or with gilteritinib; type: cell-based; settings: Homo sapiens, MOLM-13 cells, three days, CellTiter-Glo
[1] = 72 h, compound alone (without gilteritinib), 11 IC50
[2] = 72 h, with gilteritinib 10 nM, 11 IC50 gilteritinib
[3] = 72 h, compound alone (without gilteritinib), read-out: MOLM-13 IC50
[4] = 72 h, with gilteritinib 20 nM, read-out: MOLM-13 IC50 gilteritinib
[5] = MV4-11, 72 h, compound alone (without gilteritinib), 11 IC50
[6] = MV4-11, 72 h, with gilteritinib 10 nM, 11 IC50 gilteritinib
[7] = MOLM-13, 72 h, compound alone (without gilteritinib), read-out: MOLM-13 IC50
[8] = MOLM-13, 72 h, with gilteritinib 20 nM, read-out: MOLM-13 IC50 gilteritinib

Structure (SMILES) | pIC50 (MV4;11 cells; [1]) | pIC50 (MV4;11 cells; [2]) | pIC50 (MOLM-13 cells; [3]) | pIC50 (MOLM-13 cells; [4]) | pIC50 (MV4;11 cells; [5]) | pIC50 (MV4;11 cells; [6]) | pIC50 (MOLM-13 cells; [7]) | pIC50 (MOLM-13 cells; [8])
O=C1CCC(N2C(=O)c3ccc(NCCNc4cccc(N5CCC(n6cc(-c7cnc8cccc(Br)c8n7)cn6)CC5)c4)cc3C2=O)C(=O)N1 (centres unmarked) [GS-362, 5-((2-((3-(4-(4-(8-Bromoquinoxalin-2-yl)-1H-pyrazol-1-yl)piperidin-1-yl)phenyl)amino)ethyl)amino)-2-(2,6-dioxopiperidin-3-yl)isoindoline-1,3-dione] | > 8.00 | > 8.00 | > 8.00 | > 8.00 |  |  |  | 
O=C1CCC(N2C(=O)c3ccc(N4CCC(CCCn5cc(-c6cnc7ccccc7n6)cn5)CC4)cc3C2=O)C(=O)N1 (centres unmarked) [GS-363, 2-(2,6-Dioxopiperidin-3-yl)-5-(4-(3-(4-(quinoxalin-2-yl)-1H-pyrazol-1-yl)propyl)piperidin-1-yl)isoindoline-1,3-dione] |  |  |  |  | 6.00 to 7.00 | 6.00 to 7.00 | < 6.00 | < 6.00
O=C1CCC(N2C(=O)c3ccc(C4CN(CCCCn5cc(-c6cnc7ccccc7n6)cn5)C4)cc3C2=O)C(=O)N1 (centres unmarked) [GS-364, 2-(2,6-Dioxopiperidin-3-yl)-5-(1-(4-(4-(quinoxalin-2-yl)-1H-pyrazol-1-yl)butyl)azetidin-3-yl)isoindoline-1,3-dione] |  |  |  |  | < 6.00 | < 6.00 | < 6.00 | < 6.00
O=C1CCC(N2C(=O)c3ccc(NCCCc4cccc(-n5cc(-c6cnc7ccccc7n6)cn5)c4)cc3C2=O)C(=O)N1 (centres unmarked) [GS-365, 2-(2,6-Ddioxopiperidin-3-yl)-5-((3-(3-(4-(quinoxalin-2-yl)-1H-pyrazol-1-yl)phenyl)propyl)amino)isoindoline-1,3-dione] |  |  |  |  | < 6.00 | < 6.00 | < 6.00 | 6.00 to 7.00
O=C1CCC(N2C(=O)c3ccc(NCCNc4cccc(N5CCC(c6ccccc6)CC5)c4)cc3C2=O)C(=O)N1 (centres unmarked) [GS-366, 2-(2,6-Dioxopiperidin-3-yl)-5-((2-((3-(4-phenylpiperidin-1-yl)phenyl)amino)ethyl)amino)isoindoline-1,3-dione] | 7.00 to 8.00 | > 8.00 | 7.00 to 8.00 | > 8.00 |  |  |  | 
O=C1CCC(N2C(=O)c3ccc(N4CC(CCCCn5cc(-c6cnc7ccccc7n6)cn5)C4)cc3C2=O)C(=O)N1 (centres unmarked) [GS-367, 2-(2,6-Dioxopiperidin-3-yl)-5-(3-(4-(4-(quinoxalin-2-yl)-1H-pyrazol-1-yl)butyl)azetidin-1-yl)isoindoline-1,3-dione] |  |  |  |  | < 6.00 | < 6.00 | < 6.00 | < 6.00
O=C1CCC(N2C(=O)c3ccc(NCCCc4cccc(N5CCC(n6cc(-c7cnc8ccccc8n7)cn6)CC5)c4)cc3C2=O)C(=O)N1 (centres unmarked) [GS-368, 2-(2,6-Dioxopiperidin-3-yl)-5-((3-(3-(4-(4-(quinoxalin-2-yl)-1H-pyrazol-1-yl)piperidin-1-yl)phenyl)propyl)amino)isoindoline-1,3-dione] |  |  |  |  | > 8.00 | > 8.00 | > 8.00 | > 8.00
O=C1CCC(N2C(=O)c3ccc(C#CCCCCn4cc(-c5cnc6ccccc6n5)cn4)cc3C2=O)C(=O)N1 (centres unmarked) [GS-369, 2-(2,6-Dioxopiperidin-3-yl)-5-(6-(4-(quinoxalin-2-yl)-1H-pyrazol-1-yl)hex-1-yn-1-yl)isoindoline-1,3-dione] |  |  |  |  | < 6.00 | < 6.00 | < 6.00 | < 6.00
O=C1CCC(N2C(=O)c3ccc(NCCNc4cccc(N5CCC(c6nccs6)CC5)c4)cc3C2=O)C(=O)N1 (centres unmarked) [GS-370, 2-(2,6-Dioxopiperidin-3-yl)-5-((2-((3-(4-(thiazol-2-yl)piperidin-1-yl)phenyl)amino)ethyl)amino)isoindoline-1,3-dione] | > 8.00 | > 8.00 | > 8.00 | > 8.00 |  |  |  | 
O=C1CCC(N2C(=O)c3ccc(NCCCN4CC(n5cc(-c6cnc7ccccc7n6)cn5)C4)cc3C2=O)C(=O)N1 (centres unmarked) [GS-371, 2-(2,6-Dioxopiperidin-3-yl)-5-((3-(3-(4-(quinoxalin-2-yl)-1H-pyrazol-1-yl)azetidin-1-yl)propyl)amino)isoindoline-1,3-dione] |  |  |  |  | < 6.00 | < 6.00 | 6.00 to 7.00 | 6.00 to 7.00
O=C1CCC(N2C(=O)c3ccc(NCCNc4cccc(N5CCN(c6ccccn6)CC5)c4)cc3C2=O)C(=O)N1 (centres unmarked) [GS-372, 2-(2,6-Dioxopiperidin-3-yl)-5-((2-((3-(4-(pyridin-2-yl)piperazin-1-yl)phenyl)amino)ethyl)amino)isoindoline-1,3-dione] | 7.00 to 8.00 | > 8.00 | > 8.00 | > 8.00 |  |  |  | 
O=C1CCC(N2C(=O)c3ccc(NCCNC4CC(n5cc(-c6cnc7ccccc7n6)cn5)C4)cc3C2=O)C(=O)N1 (centres unmarked) [GS-373, 2-(2,6-Dioxopiperidin-3-yl)-5-((2-((3-(4-(quinoxalin-2-yl)-1H-pyrazol-1-yl)cyclobutyl)amino)ethyl)amino)isoindoline-1,3-dione] | < 6.00 | < 6.00 | < 6.00 | < 6.00 |  |  |  | 
O=C1CCC(N2Cc3cc(CCCCCCn4cc(-c5cnc6ccccc6n5)cn4)ccc3C2=O)C(=O)N1 (centres unmarked) [GS-374, 3-(1-Oxo-5-(6-(4-(quinoxalin-2-yl)-1H-pyrazol-1-yl)hexyl)isoindolin-2-yl)piperidine-2,6-dione] |  |  |  |  | 6.00 to 7.00 | < 6.00 | < 6.00 | 6.00 to 7.00
O=C1CCC(N2Cc3cc(CCCCCCCn4cc(-c5cnc6ccccc6n5)cn4)ccc3C2=O)C(=O)N1 (centres unmarked) [GS-375, 3-(1-Oxo-5-(7-(4-(quinoxalin-2-yl)-1H-pyrazol-1-yl)heptyl)isoindolin-2-yl)piperidine-2,6-dione] |  |  |  |  | 6.00 to 7.00 | 7.00 to 8.00 | < 6.00 | 7.00 to 8.00
O=C1CCC(N2C(=O)c3ccc(NCCCCCCn4cc(-c5cnc6cccc(Cl)c6n5)cn4)cc3C2=O)C(=O)N1 (centres unmarked) [GS-376, 5-((6-(4-(8-Chloroquinoxalin-2-yl)-1H-pyrazol-1-yl)hexyl)amino)-2-(2,6-dioxopiperidin-3-yl)isoindoline-1,3-dione] |  |  |  |  | 6.00 to 7.00 | 7.00 to 8.00 | < 6.00 | 7.00 to 8.00
O=C1CCC(N2C(=O)c3ccc(NCCCCCCn4cc(-c5cnc6cccc(F)c6n5)cn4)cc3C2=O)C(=O)N1 (centres unmarked) [GS-377, 2-(2,6-Dioxopiperidin-3-yl)-5-((6-(4-(8-fluoroquinoxalin-2-yl)-1H-pyrazol-1-yl)hexyl)amino)isoindoline-1,3-dione] |  |  |  |  | 6.00 to 7.00 | 7.00 to 8.00 | < 6.00 | > 8.00
O=C1CCC(N2Cc3c(NC4CCC(Nc5cccc(N6CCC(n7cc(-c8cnc9ccccc9n8)cn7)CC6)c5)CC4)cccc3C2=O)C(=O)N1 (centres unmarked) [GS-378, 3-(1-Oxo-4-((4-((3-(4-(4-(quinoxalin-2-yl)-1H-pyrazol-1-yl)piperidin-1-yl)phenyl)amino)cyclohexyl)amino)isoindolin-2-yl)piperidine-2,6-dione] |  |  |  |  | 7.00 to 8.00 | > 8.00 | 7.00 to 8.00 | > 8.00
O=C1CCC(N2C(=O)c3ccc(NCCCCNC(=O)N4CCC(n5cc(-c6cnc7ccccc7n6)cn5)CC4)cc3C2=O)C(=O)N1 (centres unmarked) [GS-379, N-(4-((2-(2,6-Dioxopiperidin-3-yl)-1,3-dioxoisoindolin-5-yl)amino)butyl)-4-(4-(quinoxalin-2-yl)-1H-pyrazol-1-yl)piperidine-1-carboxamide] |  |  |  |  | 6.00 to 7.00 | 7.00 to 8.00 | < 6.00 | 7.00 to 8.00
Cc1nc(-c2cnc3ccccc3n2)cn1CCCCCCNc1ccc2c(c1)C(=O)N(C1CCC(=O)NC1=O)C2=O (centres unmarked) [GS-380, 2-(2,6-Dioxopiperidin-3-yl)-5-((6-(2-methyl-4-(quinoxalin-2-yl)-1H-imidazol-1-yl)hexyl)amino)isoindoline-1,3-dione] |  |  |  |  | < 6.00 | < 6.00 | 6.00 to 7.00 | 6.00 to 7.00
O=C1CCC(N2C(=O)c3ccc(NCCCCCCn4cc(-c5cnc6cccc(N7CCOCC7)c6n5)cn4)cc3C2=O)C(=O)N1 (centres unmarked) [GS-381, 2-(2,6-Dioxopiperidin-3-yl)-5-((6-(4-(8-morpholinoquinoxalin-2-yl)-1H-pyrazol-1-yl)hexyl)amino)isoindoline-1,3-dione] |  |  |  |  | < 6.00 | 6.00 to 7.00 | < 6.00 | 7.00 to 8.00
O=C1CCC(N2C(=O)c3ccc(NCCCCCCn4cc(-c5cnc6cccc(C7CCOCC7)c6n5)cn4)cc3C2=O)C(=O)N1 (centres unmarked) [GS-382] |  |  |  |  | < 6.00 | < 6.00 | < 6.00 | 7.00 to 8.00
CN1CCN(c2cccc3ncc(-c4cnn(CCCCCCNc5ccc6c(c5)C(=O)N(C5CCC(=O)NC5=O)C6=O)c4)nc23)CC1 (centres unmarked) [GS-383, 2-(2,6-Dioxopiperidin-3-yl)-5-((6-(4-(8-(4-methylpiperazin-1-yl)quinoxalin-2-yl)-1H-pyrazol-1-yl)hexyl)amino)isoindoline-1,3-dione] |  |  |  |  | < 6.00 | 6.00 to 7.00 | < 6.00 | < 6.00
O=C1CCC(N2C(=O)c3ccc(NCCCCCCn4cc(-c5cnc6cccc(N7CCNCC7)c6n5)cn4)cc3C2=O)C(=O)N1 (centres unmarked) [GS-384, 2-(2,6-Dioxopiperidin-3-yl)-5-((6-(4-(8-(piperazin-1-yl)quinoxalin-2-yl)-1H-pyrazol-1-yl)hexyl)amino)isoindoline-1,3-dione] |  |  |  |  | < 6.00 | < 6.00 | < 6.00 | < 6.00
